Results: patent US7282522B2, “Hydroxamic acid derivatives and the method for preparing thereof” (Amorepacific Corporation, priority 2003, dated 2007)

How the values were obtained:
[1] = biological target: T1, RARα (Homo sapiens, UniProt P10276); test: RARE-luciferase reporter assay in transfected CV-1 cells (affinity to retinoic acid receptor), RARα; type: cell-based; conditions: treated 24 hours at final concentration 10^−4M, control group 1000
T1 construct: expressed in transfected cells; host or cells: CV-1 cells (ATCC)
T1 sequence (P10276 1-462): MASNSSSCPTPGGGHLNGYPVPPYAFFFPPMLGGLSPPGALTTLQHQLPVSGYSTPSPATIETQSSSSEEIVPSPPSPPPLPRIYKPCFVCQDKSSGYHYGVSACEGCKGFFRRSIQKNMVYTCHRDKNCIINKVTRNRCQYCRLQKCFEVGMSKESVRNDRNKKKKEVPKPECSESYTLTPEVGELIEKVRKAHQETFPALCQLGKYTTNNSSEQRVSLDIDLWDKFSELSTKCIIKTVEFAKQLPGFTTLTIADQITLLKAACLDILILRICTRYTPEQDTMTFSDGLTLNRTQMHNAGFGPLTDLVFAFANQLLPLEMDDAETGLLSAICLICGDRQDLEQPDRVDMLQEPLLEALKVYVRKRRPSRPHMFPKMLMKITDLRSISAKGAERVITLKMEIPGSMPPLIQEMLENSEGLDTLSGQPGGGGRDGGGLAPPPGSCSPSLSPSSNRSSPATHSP
Excerpt: This example illustrates affinities of hydroxamic acid derivatives obtained in Examples 1 to 55 to retinoic acid receptor, in comparison with retinol and retinoic acid.
(§1) Receptor-expression plasmid, pECE-RARα and pECE-RARγ were engineered by the prior method (Mol. Cell. Biol. 1996, 16, 1138-1149). RARE-tk-Luc, i.e. RARE reporter was obtained by inserting RARE fragment from b-RARE-tk-CAT into pGL3 luciferase basic vector. CV-1 cells were obtained from ATCC (American Type Culture Collection).
CV-1 cells were seeded into 96-well microtiter plate at 5,000 cells per well and cultured in DMEM (Dulbecco's Modified Eagle's Media) supplemented with 2.5% fetal bovine serum. 24 Hours later, the cells were transfected with 10 ng of pECE-RARα, long of pECE-RARγ, 100 ng of reporter plasmid and 100 ng of β-galactosidase-expression vector, using LipofectaminPlus (GIBCO BRL, grand island, N.Y.). 24 Hours post-transfection, the cells were treated for 24 hours with hydroxamic acid derivatives of Examples 1˜55 or retinol at a final concentration of 10^−4M or with retinoic acid at a final concentration of 10^−5M, which is 10 times lower concentration than those of the former.

[2] = system: elastase; test: Inhibition of elastase expression in human fibroblasts (ELISA kit); type: cell-based; conditions: 10^−4M, 24 hours, serum-free medium, relative to control group = 100
Procedure: (§2) For each culture fluid, elastase production was measured with elastase kit (commercialized by AmershamPharmacia Biotech). Firstly, the culture fluid was added to 96-well plate spread with primary elastase antibody and then antigen-antibody reaction was performed in an incubator for 3 hours. Later, chromophore-conjugated secondary antibody was added to the 96-well plate and then reacted for 15 minutes. Then, color former was added thereto, to induce development at room temperature for 15 minutes. 1M of sulfuric acid was added to stop the reaction. […] The color density depends on the progress of the reaction. The absorbance of the yellow 96-well plate was measured at 405 nm using absorptiometer. Elastase expression was calculated by the following equation 2. Herein, the absorbance of the culture fluid collected from the medium with no material treated was used as a control. Elastase expression (%)=(Absorbance of test group with said material treated/Absorbance of control group with no material treated)×100 [Equation 2]
Elastase expression was evaluated as a relative value, in consideration that the value of control group with no material treated is 100.

[3] = system: collagenase; test: Inhibition of collagenase expression in human fibroblasts (ELISA kit); type: cell-based; conditions: 10^−4M, 24 hours, serum-free medium, relative to control group = 100
Procedure: Human fibroblasts were seeded into 96-well microtiter plate at 5,000 cells per well and then cultured to 90% of growth in DMEM (Dulbecco's Modified Eagle's Media) supplemented with 2.5% fetal bovine serum. Then, the fibroblastes were cultured in serum-free DMEM for 24 hours and treated for 24 hours with 10^−4M of hydroxamic acid derivatives of Examples 1˜55, retinol or retinoic acid in serum-free medium, and then the culture fluid was collected.
as §2, with “collagenase” for “elastase”, “Collagenase” for “Elastase”, “1.” for “2.”, “1]” for “2]”
Collagenase expression was evaluated as a relative value, in consideration that the value of control group with no material treated is 100.

[4] = system: rabbits; test: Primary skin irritation test on animals (Draize P.I.I.); conditions: depilated back; for P.I.I. (Primary Irritation Index): 0.5 ml of 1% solution in 1,3-butylene glycol:ethanol 7:3, observed 24 or 72 hours later; for Evaluation (skin irritation): 1% solution, according to Draize's P.I.I.
[5] = biological target: T2, RARγ (Homo sapiens, UniProt P13631); test: RARE-luciferase reporter assay in transfected CV-1 cells (affinity to retinoic acid receptor), RARγ; type: cell-based; conditions: treated 24 hours at final concentration 10^−4M, control group 5000
T2 construct: expressed in transfected cells; host or cells: CV-1 cells (ATCC)
T2 sequence (P13631 1-454): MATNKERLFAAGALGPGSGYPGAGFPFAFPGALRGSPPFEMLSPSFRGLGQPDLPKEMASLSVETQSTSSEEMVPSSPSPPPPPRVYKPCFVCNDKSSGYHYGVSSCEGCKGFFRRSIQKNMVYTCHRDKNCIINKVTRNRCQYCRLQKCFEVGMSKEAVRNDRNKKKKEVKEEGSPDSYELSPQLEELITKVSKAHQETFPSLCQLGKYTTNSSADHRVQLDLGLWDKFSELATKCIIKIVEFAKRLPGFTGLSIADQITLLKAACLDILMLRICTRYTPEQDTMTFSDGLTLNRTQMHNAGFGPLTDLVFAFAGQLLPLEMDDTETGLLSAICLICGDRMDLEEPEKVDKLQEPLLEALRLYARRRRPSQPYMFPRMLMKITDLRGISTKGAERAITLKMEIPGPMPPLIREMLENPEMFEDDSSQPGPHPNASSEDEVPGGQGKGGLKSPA
Procedure: as §1
CV-1 cells were seeded into 96-well microtiter plate at 5,000 cells per well and cultured in DMEM (Dulbecco's Modified Eagle's Media) supplemented with 2.5% fetal bovine serum. 24 Hours later, the cells were transfected with 10 ng of pECE-RARα, long of pECE-RARγ, 100 ng of reporter plasmid and 100 ng of β-galactosidase-expression vector, using LipofectaminPlus (GIBCO BRL, grand island, N.Y.).

[6] = system: white guinea pigs; test: Phototoxicity test (UVA irradiation); conditions: for Evaluation (phototoxicity): 1%(w/v) solution, UVA 15 J/cm^2; for Phototoxic index: 50 μl of 1%(w/v) solution, UVA 320~380 nm 15 J/cm^2, observed 24, 48 and 72 hours
Procedure: Test was performed for twenty-five (25) of white guinea pigs whose backs were depilated and fixed. On both sides of the back, six(6) sites of 2 cm×2 cm, three(3) per side were sectioned. Right sites were compared as controls with no irradiation (UV non-irradiation sites) and left sites were irradiated (UV irradiation sites).
30 Minutes later, right sites were shielded with aluminum foil and UVA(320˜380 nm) was irradiated at a distance of about 10 cm therefrom using Waldmann to the final energy of 15 J/cm^2. After 24, 48 and 72 hours elapsed, skin response of guinea pig was observed. […] Evaluation was estimated for each elapsed time, i.e. 24, 48 and 72 hours and maximum scores were selected, to calculate irritation index by the following equation 3. Then, phototoxic index was calculated by the following equation 4. Irritation index=(ΣMaximum of erythema+ΣMaximum of edema)/Number of animals [Equation 3] Phototoxic index=(Irritation index of UV irradiation site)−(Irritation index of UV non-irradiation site) Equation 4]

[7] = system: procollagen type I; test: Effect on collagen biosynthesis (procollagen type I ELISA) in human fibroblasts; type: cell-based; conditions: 10^−4M, 24 hours, serum-free medium, relative to control group = 100
Procedure: Human fibroblasts were seeded into 24-well plate at 1×10^5 cells per well and then cultured to 90% of growth.
For each supernatant, procollagen production was measured with procollagen type I ELISA kit.

| Compound | Luciferase activity RARα [1] | Elastase expression (%) [2] | Collagenase expression (%) [3] | P.I.I. (Primary Irritation Index) [4] | Evaluation (skin irritation) [4] | Luciferase activity RARγ [5] | Evaluation (phototoxicity) [6] | Phototoxic index [6] | Collagen biosynthesis (%) [7] |
| --- | --- | --- | --- | --- | --- | --- | --- | --- | --- |
| CCCCc1ccc(C(=O)N(C)c2ccc(C(=O)NO)cc2)cc1 [Example 18, N-[4-(N-hydroxycarbamoyl)phenyl]-N-methyl-[4-butylphenyl]carboxyamide] | 12900 | 79% | 78% | 0.321 | No irritation | 11400 | No phototoxicity (lower value than 0.5, criterion value to be estimated as no phototoxicity) | 0 | 130% |
| Cc1ccc(C(=O)N(C)c2ccc(C(=O)NO)cc2)cc1C [Example 20, N-[4-(N-hydroxcarbamoly)phenyl]-N-methyl-[3,4-dimethylphenyl]carboxyamide] | 12200 | 78% | 68% | 0.421 | No irritation | 12300 | No phototoxicity (lower value than 0.5, criterion value to be estimated as no phototoxicity) | 0 | 122% |
| CN(C(=O)C12CC3CC(CC(C3)C1)C2)c1ccc(C(=O)NO)cc1 [Example 21, N-[4-(N-hydroxycarbamoyl)phenyl]adamantyl-N-methylcarboxyamide] | 12500 | 78% | 69% | 0.345 | No irritation | 11200 | No phototoxicity (lower value than 0.5, criterion value to be estimated as no phototoxicity) | 0 | 118% |
| CN(O)C(=O)c1ccc(N(C)C(=O)C23CC4CC(CC(C4)C2)C3)cc1 [Example 22, adamantyl-N-[4-(N-hydroxy-N-methylcarbamoyl)phenyl]-N-methylcarboxyamide] | 12100 | 70% | 77% | 0.350 | No irritation | 12400 | No phototoxicity (lower value than 0.5, criterion value to be estimated as no phototoxicity) | 0 | 120% |
| Cc1ccc(C(=O)Nc2ccc(CC(=O)NO)cc2)cc1 [Example 24, N-[4-(N-hydroxycarbamoylmethyl)phenyl][4-methylphenyl]carboxyamide] | 12100 | 82% | 76% | 0.321 | No irritation | 11210 | No phototoxicity (lower value than 0.5, criterion value to be estimated as no phototoxicity) | 0 | 121% |
| Cc1cccc(C(=O)Nc2ccc(CC(=O)NO)cc2)c1 [Example 25, N-[4-(N-hydroxycarbamoylmethyl)phenyl][3-methylphenyl]carboxyamide] | 13200 | 80% | 70% | 0.423 | No irritation | 12100 | No phototoxicity (lower value than 0.5, criterion value to be estimated as no phototoxicity) | 0 | 120% |
| CCc1ccc(C(=O)Nc2ccc(CC(=O)NO)cc2)cc1 [Example 26, N-[4-(N-hydroxycarbamoylmethyl)phenyl][4-ethylphenyl]carboxyamide] | 17500 | 86% | 78% | 0.321 | No irritation | 11200 | No phototoxicity (lower value than 0.5, criterion value to be estimated as no phototoxicity) | 0 | 123% |
| CCCc1ccc(C(=O)Nc2ccc(CC(=O)NO)cc2)cc1 [Example 27, N-[4-(N-hydroxycarbamoylmethyl)phenyl][4-propylphenyl]carboxyamide] | 13920 | 87% | 87% | 0.568 | No irritation | 11300 | No phototoxicity (lower value than 0.5, criterion value to be estimated as no phototoxicity) | 0 | 112% |
